Read-outs that look alike come from different tables or passages of the source.
Experiments:
Get3 (S. cerevisiae) [1] = target: Get3 (S. cerevisiae) (Saccharomyces cerevisiae, UniProt Q12154, D57N); assay: NADH-coupled microplate ATPase assay; format: biochemical; settings: Tris pH 7.5, 5 mM MgCl2, 20 mM NaCl, 30 °C, 2 μM Get3, 0.02% n-dodecyl-β-D-maltopyranoside
Get3 (S. cerevisiae) [2] = target: T1, Get3 (S. cerevisiae) (Saccharomyces cerevisiae, UniProt Q12154); assay: NADH-coupled microplate ATPase assay; format: biochemical; settings: Tris pH 7.5, 5 mM MgCl2, 20 mM NaCl, 30 °C, 2 μM Get3, 0.02% n-dodecyl-β-D-maltopyranoside
T1 sequence (Q12154 1-354): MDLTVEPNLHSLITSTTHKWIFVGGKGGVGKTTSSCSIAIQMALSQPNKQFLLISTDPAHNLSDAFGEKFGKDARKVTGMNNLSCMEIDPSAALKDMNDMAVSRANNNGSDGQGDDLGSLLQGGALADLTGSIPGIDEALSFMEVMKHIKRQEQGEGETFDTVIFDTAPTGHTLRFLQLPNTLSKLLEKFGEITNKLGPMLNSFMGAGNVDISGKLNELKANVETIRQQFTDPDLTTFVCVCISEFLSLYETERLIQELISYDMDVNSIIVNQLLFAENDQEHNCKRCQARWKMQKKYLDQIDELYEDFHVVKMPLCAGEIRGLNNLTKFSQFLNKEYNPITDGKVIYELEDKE

crystal structure [3] = target: the molecule itself; assay: crystal structure
crystal structure [4] = target: the molecule itself; assay: crystal structure; remark: listed apart in the source

Chain of Get3 (S. cerevisiae) (Saccharomyces cerevisiae, UniProt Q12154, D57N) (Q12154 whole entry D57N): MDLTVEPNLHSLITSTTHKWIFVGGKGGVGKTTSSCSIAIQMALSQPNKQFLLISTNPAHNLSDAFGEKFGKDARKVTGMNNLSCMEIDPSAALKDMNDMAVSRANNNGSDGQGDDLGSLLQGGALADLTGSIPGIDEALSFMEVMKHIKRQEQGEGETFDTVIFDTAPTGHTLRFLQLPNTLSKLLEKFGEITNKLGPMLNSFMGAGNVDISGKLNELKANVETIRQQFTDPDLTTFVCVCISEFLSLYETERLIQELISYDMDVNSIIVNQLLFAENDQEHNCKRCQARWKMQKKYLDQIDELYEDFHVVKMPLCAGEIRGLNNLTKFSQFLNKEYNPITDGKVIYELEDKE

## Nc1ncnc2c1ncn2[C@@H]1O[C@H](COP(=O)(O)OP(=O)(O)OP(=O)(O)O)[C@@H](O)[C@H]1O [ATP]
Get3 (S. cerevisiae) [1]
  NADH-coupled microplate ATPase assay: an Asp57Asn mutant is defective for ATP hydrolysis
Get3 (S. cerevisiae) [2]
  apparent Km,ATP: used to calculate Vmax and apparent Km,ATP values

B1: Schizosaccharomyces pombe Get3 (natural protein, S. pombe, UniProt Q9P7F8 1-329, looked up)
chain: MSFDPLPGTLENLLEQTSLKWIFVGGKGGVGKTTTSCSLAIQMSKVRSSVLLISTDPAHNLSDAFGTKFGKDARKVPGFDNLSAMEIDPNLSIQEMTEQADQQNPNNPLSGMMQDLAFTIPGIDEALAFAEILKQIKSMEFDCVIFDTAPTGHTLRFLNFPTVLEKALGKLGGLSSRFGPMINQMGSIMGVNANEQDLFGKMESMRANISEVNKQFKNPDLTTFVCVCISEFLSLYETERMIQELTSYEIDTHNIVVNQLLLDPNTTCPQCMARRKMQQKYLAQIEELYEDFHVVKVPQVPAEVRGTEALKSFSEMLVKPYVYPTSGKE
Crystal structure [3]
  stoichiometry N: 2

B2: Saccharomyces cerevisiae Get3 (wild type) (natural protein, S. cerevisiae, UniProt Q12154 1-354, looked up)
chain: T1 sequence (Q12154 1-354)
Crystal structure [4]
  stoichiometry N: 2

Source: publication PMC6528170 (Nature, 2009)
